From paper PMC9549809, “In vivo behavior of [^64Cu]NOTA-terpyridine platinum, a novel chemo-radio-theranostic agent for imaging, and therapy of colorectal cancer” (Frontiers in Medicine, 2022)
Where two headings read alike, the source gives them in different places.

Key:
[1] = tested on: tumor; parameters: method as in PMID 24337603; details: cited from earlier work
[2] = tested on: HCT116 cells; parameters: method as in PMID 34578470; details: cited from earlier work
[3] = tested on: HCT116 tumor; test: Oxaliplatin in the same HCT116 mouse model (previous study); assay type: in vivo, nude mice
[4] = tested on: plasma protein; details: 24 h; cited from earlier work
[5] = tested on: HCT116 tumor; details: cited from earlier work

CC(=O)[O-].CC(=O)[O-].[64Cu+2] [^64Cu(OAc)2]
tumor uptake ([1]; 15 min post-injection): 1.28 ± 0.13 %ID/g
tumor uptake ([1]; 2 h post-injection): 2.76 ± 0.63 %ID/g
tumor uptake ([1]; 16 h): 1.28 ± 0.07 %ID/g
nuclear accumulation relative to ^64Cu-NOTA-C3-TP [2]: significantly lower

O=C1[O][Pt]2([NH][C@@H]3CCCC[C@H]3[NH]2)[O]C1=O [oxaliplatin]
times more platinum drug in the tumor than with [^64Cu]NOTA-C3-TP ([3]; 48 h): 333 times
plasma concentration, times higher than [^64Cu]NOTA-C3-TP ([3]; 48 h post-injection, injected dose 1,250 times higher): about 6 times
bound to plasma protein [4]: 98%
quantity measured in the tumor ([5]; 10 mg/kg (25 nmol/g mouse), 48 h post-injection): 0.3 nmol/g
quantity in tumor as % of the injected dose ([5]; 10 mg/kg, 48 h post-injection): 1.2%
concentration in the tumor ([5]; 48 h post-injection): 0.12 μg/g of tumor
EF, oxaliplatin plus 15 Gy external beam vs oxaliplatin alone (TGD) ([5]; same mouse model, irradiated 48 h post-injection): 5.18
